Test results: US20220213144A1, “HALOGENATED ANTIMICROBIAL PEPTOIDS” (priority 2019, published 2022)
≈ marks a conversion by molar mass, not a printed value. Like-named read-outs stand apart in the source and are kept apart here. Blank lines part the entries; values can stand above or below the molecule they belong to. Square brackets hold non-standard residues; d marks the D form. Peptide text beside a SMILES is read from it. Gly(Nα-4-Cl-benzyl) = O=C(O)CNCc1ccc(Cl)cc1; N(4-Br-benzyl)Gly = O=C(O)CNCc1ccc(Br)cc1; N(4-F-Bzl)Gly = O=C(O)CNCc1ccc(F)cc1; NBzl(4-I)Gly = O=C(O)CNCc1ccc(I)cc1; Nphe = O=C(O)CNCc1ccccc1; Nlys = NCCCCNCC(=O)O

Experiments:
[1] = Small angle X-ray scattering, critical aggregation concentration from fit; format: physicochemical; conditions: for critical aggregation concentration (CAC): SAXS fit analysis, bundle model
Experimental: SAXS experiments of the 10-mer peptoids were performed on the automated BM29 bioSAXS beamline at the European Synchrotron Radiation Facility (ESRF) in Grenoble, France. The data was obtained using an energy of 12.5 keV and a detector distance of 2.87 m, covering a q range (q=4π sin(θ/2)/λ), where θ is the scattering angle and λ is the X-ray wavelength) of about 0.0047 Å-1 to 0.5 Å-1. The data set was calibrated to an absolute intensity scale using water as a primary standard. Samples (40 μL) were run through a capillary using the flow mode of the automated sample changer. SAXS data was collected in ten successive frames of 0.5 s each to monitor radiation damage, and the data reduction was done using the standard tool at BM29.
The SAXS experiments on the fully iodinated 6-, 8-, and 12-mers to determine the CAC of the compounds were performed using a Bruker NANOSTAR equipped with a microfocus X-ray source (IμS Cu, Incoatec, Germany) and a VANTEC-2000 detector. Raw scattering data was calibrated to absolute intensity scale using water as a primary standard and radially averaged in order to obtain the 1D scattered intensity profile as a function of the scattering vector, with a wavelength of 1.54 Å.
where fagg is the fraction of peptoid chains aggregated in bundles, allowing for calculation of a CAC from ϕCAC=ϕ−(fagg*ϕ).

seven bacterial strains = assay: MIC by broth microdilution, whole panel of bacterial strains; format: cell-based; conditions: in words
Experimental: All 36 peptoids were tested against seven bacterial strains. These included five Gram-positive strains (Staphylococcus aureus ATCC 25923 and ATCC 29213, methicillin-resistant Staphylococcus aureus USA 300, methicillin-restant Staphylococcus epidermidis ET-024 and ATCC 51625) and two Gram-negative strains (Escherichia coli ATCC 25922 and Pseudomonas aeruginosa PA01) (see TABLE 1).
(§1) Bacterial growth inhibition was determined by using broth microdilution according to the Clinical Laboratory Standards Institute. The antibacterial activity of peptoids was tested against S. aureus ATCC 25923, ATCC29213, and methicillin resistant S. aureus USA 300, methicillin resistant S. epidermidis ATCC 51625, a biofilm producing methicillin resistant S. epidermidis […], P. aeruginosa Pa01 (H103), and E. coli ATCC 25922. Bacteria, grown on agar plates for 18 hours at 37° C., were diluted to ˜1×10^8 CFU/mL in Mueller-Hinton Broth II (MHB II). Twofold serial dilutions of peptoids in MHB II were inoculated with the bacteria to achieve a final concentration of 5×10^5 CFU/mL in polypropylene 96 U-well microtiter plates (Corning™ 3897; ThermoFisher Scientific, Roskilde), followed by incubation at 37° C. in ambient air for 18 hours. The MIC values were determined as the lowest concentration showing no visible bacterial growth. Experiments were performed twice (in technical triplicates) on different days.

[2] = tested on: methicillin-restant S. epidermidis ATCC 51625; format: cell-based, Staphylococcus epidermidis; conditions: for MIC against MRSE: text b77, 6-mers, strain not named, values fit ATCC 51625
Experimental: as §1

S. aureus ATCC 25923 = format: cell-based, Staphylococcus aureus; conditions: for increase in activity against S. aureus: compared to the unsubstituted control peptoid of same length; for MIC against S. aureus: strain not named
Experimental: as §1

[3] = tested on: methicillin-restant S. epidermidis ET-024; format: cell-based, Staphylococcus epidermidis; conditions: for MIC against MRSE: strain not named; for increase in activity against MRSE: 8-mer and 10-mer, compared to unsubstituted controls 10 and 19
Experimental: as §1

[4] = Table 2, 10-mers, SAXS at ESRF, model fit
[5] = Table 3, fully iodinated peptoids, bundle model fit
[6] = 8-mers and 10-mers, values fit ET-024

CAC [1, 4]: >5 mg/mL
SMILES: NCCCCNCC(=O)N(CC(=O)N(CCCCN)CC(=O)N(CC(=O)N(CCCCN)CC(=O)N(CC(=O)N(CCCCN)CC(=O)N(CC(=O)N(CCCCN)CC(=O)N(CC(N)=O)Cc1ccc(F)cc1)Cc1ccc(F)cc1)Cc1ccc(F)cc1)Cc1ccc(F)cc1)Cc1ccc(F)cc1 [Compound 20] (H-[Nlys][N(4-F-Bzl)Gly][Nlys][N(4-F-Bzl)Gly][Nlys][N(4-F-Bzl)Gly][Nlys][N(4-F-Bzl)Gly][Nlys][N(4-F-Bzl)Gly]-NH2; N-terminus assumed)

CAC [1, 4]: >5 mg/mL
SMILES: NCCCCNCC(=O)N(CC(=O)N(CCCCN)CC(=O)N(CC(=O)N(CCCCN)CC(=O)N(CC(=O)N(CCCCN)CC(=O)N(CC(=O)N(CCCCN)CC(=O)N(CC(N)=O)Cc1ccc(Cl)cc1)Cc1ccccc1)Cc1ccc(Cl)cc1)Cc1ccccc1)Cc1ccc(Cl)cc1 [Compound 25] (H-[Nlys][Gly(Nα-4-Cl-benzyl)][Nlys][Nphe][Nlys][Gly(Nα-4-Cl-benzyl)][Nlys][Nphe][Nlys][Gly(Nα-4-Cl-benzyl)]-NH2)

SMILES: NCCCCNCC(=O)N(CC(=O)N(CCCCN)CC(=O)N(CC(=O)N(CCCCN)CC(=O)N(CC(=O)N(CCCCN)CC(=O)N(CC(=O)N(CCCCN)CC(=O)N(CC(=O)N(CCCCN)CC(=O)N(CC(N)=O)Cc1ccccc1)Cc1ccccc1)Cc1ccccc1)Cc1ccccc1)Cc1ccccc1)Cc1ccccc1 [Compound 28] (H-[Nlys][Nphe][Nlys][Nphe][Nlys][Nphe][Nlys][Nphe][Nlys][Nphe][Nlys][Nphe]-NH2; N-terminus assumed)
potency against the selected bacterial strains (seven bacterial strains): inactive

critical aggregation concentration (CAC) [1]: 0.4 mg/mL
CAC [1, 5]: 0.4 mg/mL
SMILES: NCCCCNCC(=O)N(CC(=O)N(CCCCN)CC(=O)N(CC(=O)N(CCCCN)CC(=O)N(CC(=O)N(CCCCN)CC(=O)N(CC(=O)N(CCCCN)CC(=O)N(CC(=O)N(CCCCN)CC(=O)N(CC(N)=O)Cc1ccc(I)cc1)Cc1ccc(I)cc1)Cc1ccc(I)cc1)Cc1ccc(I)cc1)Cc1ccc(I)cc1)Cc1ccc(I)cc1 [Compound 32] (H-[Nlys][NBzl(4-I)Gly][Nlys][NBzl(4-I)Gly][Nlys][NBzl(4-I)Gly][Nlys][NBzl(4-I)Gly][Nlys][NBzl(4-I)Gly][Nlys][NBzl(4-I)Gly]-NH2; N-terminus assumed)

CAC [1, 4]: >5 mg/mL
SMILES: NCCCCNCC(=O)N(CC(=O)N(CCCCN)CC(=O)N(CC(=O)N(CCCCN)CC(=O)N(CC(=O)N(CCCCN)CC(=O)N(CC(=O)N(CCCCN)CC(=O)N(CC(N)=O)Cc1ccc(Cl)cc1)Cc1ccc(Cl)cc1)Cc1ccc(Cl)cc1)Cc1ccc(Cl)cc1)Cc1ccc(Cl)cc1 [Compound 21] (H-[Nlys][Gly(Nα-4-Cl-benzyl)][Nlys][Gly(Nα-4-Cl-benzyl)][Nlys][Gly(Nα-4-Cl-benzyl)][Nlys][Gly(Nα-4-Cl-benzyl)][Nlys][Gly(Nα-4-Cl-benzyl)]-NH2; N-terminus assumed)

critical aggregation concentration (CAC) [1]: 0.5 mg/mL
CAC [1, 4]: 0.4 mg/mL
CAC [1, 5]: 0.5 mg/mL
SMILES: NCCCCNCC(=O)N(CC(=O)N(CCCCN)CC(=O)N(CC(=O)N(CCCCN)CC(=O)N(CC(=O)N(CCCCN)CC(=O)N(CC(=O)N(CCCCN)CC(=O)N(CC(N)=O)Cc1ccc(I)cc1)Cc1ccc(I)cc1)Cc1ccc(I)cc1)Cc1ccc(I)cc1)Cc1ccc(I)cc1 [Compound 23] (H-[Nlys][NBzl(4-I)Gly][Nlys][NBzl(4-I)Gly][Nlys][NBzl(4-I)Gly][Nlys][NBzl(4-I)Gly][Nlys][NBzl(4-I)Gly]-NH2; N-terminus assumed)

SMILES: NCCCCNCC(=O)N(CC(=O)N(CCCCN)CC(=O)N(CC(=O)N(CCCCN)CC(=O)N(CC(N)=O)Cc1ccccc1)Cc1ccccc1)Cc1ccccc1 [Compound 1] (H-[Nlys][Nphe][Nlys][Nphe][Nlys][Nphe]-NH2; N-terminus assumed)
potency against the selected bacterial strains (seven bacterial strains): inactive
MIC against MRSE [2]: 512 µg/mL (≈ 607 µM)

SMILES: NCCCCNCC(=O)N(CC(=O)N(CCCCN)CC(=O)N(CC(=O)N(CCCCN)CC(=O)N(CC(N)=O)Cc1ccc(I)cc1)Cc1ccc(I)cc1)Cc1ccc(I)cc1 [Compound 5] (H-[Nlys][NBzl(4-I)Gly][Nlys][NBzl(4-I)Gly][Nlys][NBzl(4-I)Gly]-NH2; N-terminus assumed)
increase in activity against S. aureus (S. aureus ATCC 25923): more than 64 fold
MIC against S. aureus (S. aureus ATCC 25923): 8 µg/mL (≈ 6.55 µM)
increase in activity against MRSE ([2]; 6-mer, compared to unsubstituted control 1): 256 fold
MIC against MRSE [2]: 2 µg/mL (≈ 1.64 µM)
critical aggregation concentration (CAC) [1]: 2.8 mg/mL
CAC [1, 5]: 2.8 mg/mL

SMILES: NCCCCNCC(=O)N(CC(=O)N(CCCCN)CC(=O)N(CC(=O)N(CCCCN)CC(=O)N(CC(=O)N(CCCCN)CC(=O)N(CC(N)=O)Cc1ccccc1)Cc1ccccc1)Cc1ccccc1)Cc1ccccc1 [Compound 10] (H-[Nlys][Nphe][Nlys][Nphe][Nlys][Nphe][Nlys][Nphe]-NH2; N-terminus assumed)
potency against the selected bacterial strains (seven bacterial strains): inactive
MIC against MRSE [3, 6]: 256 µg/mL (≈ 229 µM)

SMILES: NCCCCNCC(=O)N(CC(=O)N(CCCCN)CC(=O)N(CC(=O)N(CCCCN)CC(=O)N(CC(=O)N(CCCCN)CC(=O)N(CC(=O)N(CCCCN)CC(=O)N(CC(N)=O)Cc1ccccc1)Cc1ccccc1)Cc1ccccc1)Cc1ccccc1)Cc1ccccc1 [Compound 19] (H-[Nlys][Nphe][Nlys][Nphe][Nlys][Nphe][Nlys][Nphe][Nlys][Nphe]-NH2; N-terminus assumed)
potency against the selected bacterial strains (seven bacterial strains): inactive
MIC against MRSE [3, 6]: 128 µg/mL (≈ 91.8 µM)
CAC [1, 4]: >5 mg/mL

CAC [1, 4]: >5 mg/mL
SMILES: NCCCCNCC(=O)N(CC(=O)N(CCCCN)CC(=O)N(CC(=O)N(CCCCN)CC(=O)N(CC(=O)N(CCCCN)CC(=O)N(CC(=O)N(CCCCN)CC(=O)N(CC(N)=O)Cc1ccc(F)cc1)Cc1ccccc1)Cc1ccc(F)cc1)Cc1ccccc1)Cc1ccc(F)cc1 [Compound 24] (H-[Nlys][N(4-F-Bzl)Gly][Nlys][Nphe][Nlys][N(4-F-Bzl)Gly][Nlys][Nphe][Nlys][N(4-F-Bzl)Gly]-NH2)

CAC [1, 4]: >5 mg/mL
SMILES: NCCCCNCC(=O)N(CC(=O)N(CCCCN)CC(=O)N(CC(=O)N(CCCCN)CC(=O)N(CC(=O)N(CCCCN)CC(=O)N(CC(=O)N(CCCCN)CC(=O)N(CC(N)=O)Cc1ccc(I)cc1)Cc1ccccc1)Cc1ccc(I)cc1)Cc1ccccc1)Cc1ccc(I)cc1 [Compound 27] (H-[Nlys][NBzl(4-I)Gly][Nlys][Nphe][Nlys][NBzl(4-I)Gly][Nlys][Nphe][Nlys][NBzl(4-I)Gly]-NH2)

SMILES: NCCCCNCC(=O)N(CC(=O)N(CCCCN)CC(=O)N(CC(=O)N(CCCCN)CC(=O)N(CC(=O)N(CCCCN)CC(=O)N(CC(=O)N(CCCCN)CC(=O)N(CC(N)=O)Cc1ccc(Br)cc1)Cc1ccc(Br)cc1)Cc1ccc(Br)cc1)Cc1ccc(Br)cc1)Cc1ccc(Br)cc1 [Compound 22] (H-[Nlys][N(4-Br-benzyl)Gly][Nlys][N(4-Br-benzyl)Gly][Nlys][N(4-Br-benzyl)Gly][Nlys][N(4-Br-benzyl)Gly][Nlys][N(4-Br-benzyl)Gly]-NH2; N-terminus assumed)
increase in activity against S. aureus (S. aureus ATCC 25923): > 256 fold
MIC against S. aureus (S. aureus ATCC 25923): 2 µg/mL (≈ 1.12 µM)
increase in activity against MRSE [3]: 128 fold
MIC against MRSE [3, 6]: 1 µg/mL (≈ 0.559 µM)
critical aggregation concentration (CAC) [1]: 2.3 mg/mL
CAC [1, 4]: 2.3 mg/mL

SMILES: NCCCCNCC(=O)N(CC(=O)N(CCCCN)CC(=O)N(CC(=O)N(CCCCN)CC(=O)N(CC(=O)N(CCCCN)CC(=O)N(CC(N)=O)Cc1ccc(I)cc1)Cc1ccc(I)cc1)Cc1ccc(I)cc1)Cc1ccc(I)cc1 [Compound 14] (H-[Nlys][NBzl(4-I)Gly][Nlys][NBzl(4-I)Gly][Nlys][NBzl(4-I)Gly][Nlys][NBzl(4-I)Gly]-NH2; N-terminus assumed)
increase in activity against MRSE [3]: 128 fold
MIC against MRSE [3]: 2 µg/mL (≈ 1.23 µM)
critical aggregation concentration (CAC) [1]: 1.4 mg/mL
CAC [1, 5]: 1.4 mg/mL
